The source of these data is US10329270B2, “Heteroaryl compounds as BTK inhibitors and uses thereof” (Merck Patent GmbH, priority 2013, dated 2019).

Usually IC50 stands for the concentration at which inhibition is half-maximal.

In the test the target is T1, full-length human BTK (Homo sapiens, UniProt Q06187).
T1 construct: 2.5× stocks of full-length human BTK (08-080); purchased CarnaBio USA, Inc., Natick, Mass; 08-080
Kind of test: Assay A: BTK IC50 Enzyme Assay (microfluidic off-chip mobility shift kinase assay). Type of test: biochemical. The conditions noted are these: full-length human BTK, kinKDR peptide substrate, incubated 90 min at 27 C; read-out: Assay A (Time Dependent BTK Enzyme Assay IC50). As for the experimental part: Assay A: BTK IC50 Enzyme Assay
The following describes a microfluidic, off-chip mobility shift kinase assay used to measure inherent potency of compounds against BTK enzyme. Compounds described by embodiments of the present invention were assayed using this protocol and the data from the same is recorded in Table 2 within the column labeled: “Time Dependent BTK Enzyme Assay IC50”.
Stopped reactions were monitored at −2 PSI, −3000 V/−700 V in a LabChip 3000 plate reader from Caliper Life Sciences, a PerkinElmer Company (Hopkinton, Mass.), and the activity was measured by off-chip mobility shift assay measuring the charge/mass difference between substrate and product resulting from peptide phosphorilation. IC50 and efficacy were determined by plotting log [Inhibitor] vs. % Activity in GeneData Screener (Basel, Switzerland). […] I<1 uM and II>1 uM.

T1 sequence (Q06187 whole entry): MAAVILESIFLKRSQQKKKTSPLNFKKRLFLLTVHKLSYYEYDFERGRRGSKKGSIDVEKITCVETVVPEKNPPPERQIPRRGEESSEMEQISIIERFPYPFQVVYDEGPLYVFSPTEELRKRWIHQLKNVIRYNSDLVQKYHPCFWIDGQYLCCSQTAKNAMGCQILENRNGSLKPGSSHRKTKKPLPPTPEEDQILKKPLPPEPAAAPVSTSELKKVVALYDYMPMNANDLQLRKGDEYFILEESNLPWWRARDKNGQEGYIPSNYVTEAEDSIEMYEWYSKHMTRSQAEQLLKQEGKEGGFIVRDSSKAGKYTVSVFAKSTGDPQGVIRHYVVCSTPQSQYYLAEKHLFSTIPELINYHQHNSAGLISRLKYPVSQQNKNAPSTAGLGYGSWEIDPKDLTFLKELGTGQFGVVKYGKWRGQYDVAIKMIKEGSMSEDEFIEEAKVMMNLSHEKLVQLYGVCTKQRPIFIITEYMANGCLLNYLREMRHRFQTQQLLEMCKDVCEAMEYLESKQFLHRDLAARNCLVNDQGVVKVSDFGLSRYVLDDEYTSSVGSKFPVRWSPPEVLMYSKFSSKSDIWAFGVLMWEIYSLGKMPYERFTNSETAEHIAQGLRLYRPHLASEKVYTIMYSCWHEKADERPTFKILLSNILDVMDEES

For the compound `C=CC(=O)N[C@H]1CCN(c2ccc(C(N)=O)c(Oc3ccc(C(=O)N4CCOCC4)cc3)n2)C1` [Compound 101, 6-((S)-3-Acryloylamino-pyrrolidin-1-yl)-2-[4-(morpholine-4-carbonyl)-phenoxy]-nicotinamide], the IC50 is greater than 5 µM.

Turning to `C=CC(=O)N(C)[C@H]1CCN(c2ccc(C(N)=O)c(Oc3ccc(Oc4ccccc4)cc3)n2)C1` [Compound 107, 6-[(S)-3-(Acryloyl-methyl-amino)-pyrrolidin-1-yl]-2-(4-phenoxy-phenoxy)-nicotinamide], the IC50 is less than 0.1 µM.

As to `C=CC(=O)N[C@H]1CCN(c2cc(Oc3ccc(Oc4ccccc4)cc3)c(C(N)=O)cn2)C1` [Compound 109, 6-((S)-3-Acryloylamino-pyrrolidin-1-yl)-4-(4-phenoxy-phenoxy)-nicotinamide], the IC50 is less than 0.1 µM.

Regarding `C=CC(=O)N1CCC(c2cc(Oc3ccc(Oc4ccc(C)cc4)cc3)c(C(N)=O)cn2)C1` (stereo not drawn) [Compound 110, 6-(1-acryloylpyrrolidin-3-yl)-4-(4-(p-tolyloxy)phenoxy)nicotinamide], the IC50 is less than 0.1 µM.

Turning to `C=CC(=O)N1CCC(c2cc(Oc3ccc(OCc4ccccc4)cc3)c(C(N)=O)cn2)C1` (stereo not drawn) [Compound 111, 6-(1-acryloylpyrrolidin-3-yl)-4-(4-(benzyloxy)phenoxy)nicotinamide], the IC50 is less than 0.1 µM.

Take `C=CC(=O)N[C@H]1CCN(c2cc(Oc3ccc(OCc4ccccc4)cc3)c(C(N)=O)cn2)C1` [Compound 112, (S)-6-(3-acrylamidopyrrolidin-1-yl)-4-(4-(benzyloxy)phenoxy)nicotinamide]: the IC50 fell in the range of 0.1 to 1 µM.

Take `C=CC(=O)N[C@H]1CCN(c2cc(Oc3ccc(Oc4cccc(C#N)c4)cc3)c(C(N)=O)cn2)C1` [Compound 113, (S)-6-(3-acrylamidopyrrolidin-1-yl)-4-(4-(3-cyanophenoxy)phenoxy)nicotinamide]: the IC50 is 0.1 to 1 µM.

In the case of `C=CC(=O)N[C@H]1CCN(c2cc(Oc3ccc(Oc4ccc(C)cc4)cc3)c(C(N)=O)cn2)C1` [Compound 114, (S)-6-(3-acrylamidopyrrolidin-1-yl)-4-(4-(p-tolyloxy)phenoxy)nicotinamide], the IC50 was in the range of 0.1 to 1 µM.

Regarding `C=CC(=O)N[C@H]1CCN(c2cc(Oc3cnn(Cc4ccccc4)c3)c(C(N)=O)cn2)C1` [Compound 115], the IC50 lay in the range of 0.1 to 1 µM.

Consider `C=CC(=O)N[C@H]1CCN(c2cc(Oc3ccc(C(=O)Nc4ccccc4)cc3)c(C(N)=O)cn2)C1` [Compound 116, (S)-6-(3-acrylamidopyrrolidin-1-yl)-4-(4-(phenylcarbamoyl)phenoxy)nicotinamide], for which the IC50 was in the range of 1 to 5 µM.

Turning to `C=CC(=O)N1CCC(c2cc(Oc3ccc(C(=O)Nc4ccccc4)cc3)c(C(N)=O)cn2)C1` (stereo not drawn) [Compound 117], the IC50 is 1 to 5 µM.

In the case of `C=CC(=O)N1CCC=C(c2cnc(Oc3ccc(Oc4ccccc4)cc3)c(C(N)=O)c2)C1` [Compound 123, 1′-Acryloyl-6-(4-phenoxy-phenoxy)-1′,2′,5′,6′-tetrahydro-[3,3′]bipyridinyl-5-carboxylic acid amide], the IC50 was less than 0.1 µM.

As for `C=CC(=O)N1CCC[C@H](c2cnc(Oc3ccc(Oc4ccccc4)cc3)c(C(N)=O)c2)C1` [Compound 124, (R)-5-(1-acryloylpiperidin-3-yl)-2-(4-phenoxyphenoxy)nicotinamide], the IC50 is less than 0.1 µM.

With `C=CC(=O)N1CCC[C@@H](c2cnc(Oc3ccc(Oc4ccccc4)cc3)c(C(N)=O)c2)C1` [Compound 125, (S)-5-(1-acryloylpiperidin-3-yl)-2-(4-phenoxyphenoxy)nicotinamide], the IC50 is less than 0.1 µM.

Turning to `C=CC(=O)N1CCCC(c2cnc(Oc3ccc(Oc4ccccc4)cc3)c(C(N)=O)c2)C1` (stereo not drawn) [Compound 126, 1′-Acryloyl-6-(4-phenoxy-phenoxy)-1′,2′,3′,4′,5′,6′-hexahydro-[3,3′]bipyridinyl-5-carboxylic acid amide], the IC50 was less than 0.1 µM.
